Where “and” joins values, the source holds several entries; their conditions need not be identical. Equal entries are not always repeated. Where a SMILES comes first, the peptide text is derived from it. The star is where a group is joined. Cbz = O=C(OCc1ccccc1)*
How the values were obtained:
[1] = test system: NCI-H524; experiment: cells; type: functional, cell-based, Homo sapiens;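 further: growth inhibition of human NCI-H524 cells, read out through a cell viability assay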
Description: SANGER: Inhibition of human NCI-H524 cell growth in a cell viability assay.

[2] = test system: CMK; experiment: cells; type: functional, cell-based, Homo sapiens;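 further: growth inhibition of CMK cells, read out as cell viability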
Description: SANGER: Inhibition of human CMK cell growth in a cell viability assay.

[3] = test system: IMR-5; experiment: cells; type: functional, cell-based, Homo sapiens;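 further: growth inhibition of human IMR-5 cells, read out with a cell viability assay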
Description: SANGER: Inhibition of human IMR-5 cell growth in a cell viability assay.

[4] = test system: NB14; experiment: cells; type: functional, cell-based, Homo sapiens;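 further: growth inhibition of NB14 cells measured with a cell viability assay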
Description: SANGER: Inhibition of human NB14 cell growth in a cell viability assay.

[5] = test system: BC1 cell line; experiment: SANGER: Inhibition of human BC-1 cell growth in a cell viability assay.; type: functional, cell-based
[6] = test system: NCI-H719; experiment: cells; type: functional, cell-based, Homo sapiens;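 further: growth inhibition of the cultured cell line, read out with a viability assay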
Description: SANGER: Inhibition of human NCI-H719 cell growth in a cell viability assay.

[7] = test system: HuTu80; experiment: cells; type: functional, cell-based, Homo sapiens, HUTU-80;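 further: growth inhibition of HuTu80 human cells, determined with a cell viability readout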
Description: SANGER: Inhibition of human HUTU-80 cell growth in a cell viability assay.

[8] = test system: MRK-nu-1; experiment: cells; type: functional, cell-based, Homo sapiens;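 further: cell viability assay measuring growth suppression of human MRK-nu-1 cells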
Description: SANGER: Inhibition of human MRK-nu-1 cell growth in a cell viability assay.

[9] = test system: NCI-H64; experiment: cells; type: functional, cell-based, Homo sapiens;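 further: growth inhibition of NCI-H64 cells, read out with a cell viability assay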
Description: SANGER: Inhibition of human NCI-H64 cell growth in a cell viability assay.

[10] = test system: Daudi; experiment: cells; type: functional, cell-based, Homo sapiens;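 further: growth inhibition of Daudi cells, read out by a viability assay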
Description: SANGER: Inhibition of human Daudi cell growth in a cell viability assay.

[11] = test system: EC-GI-10; experiment: cells; type: functional, cell-based, Homo sapiens
Description: SANGER: Inhibition of human EC-GI-10 cell growth in a cell viability assay.

[12] = test system: BL-70; experiment: SANGER: Inhibition of human BL-70 cell growth in a cell viability assay.; type: functional, cell-based
[13] = test system: SNU-C1; experiment: cells; type: functional, cell-based, Homo sapiens;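 further: growth inhibition of SNU-C1 human cells, read out by a cell viability assay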
Description: SANGER: Inhibition of human SNU-C1 cell growth in a cell viability assay.

[14] = test system: EB-3; experiment: cells; type: functional, cell-based, Homo sapiens;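 further: human EB-3 cells, growth inhibition read out via a cell viability assay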
Description: SANGER: Inhibition of human EB-3 cell growth in a cell viability assay.

[15] = test system: KARPAS-422; experiment: cells; type: functional, cell-based, Homo sapiens
Description: SANGER: Inhibition of human KARPAS-422 cell growth in a cell viability assay.

[16] = test system: NCI-H322M; experiment: cells; type: functional, cell-based, Homo sapiens;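 further: cell viability assay measuring inhibition of growth of human NCI-H322M cells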
Description: SANGER: Inhibition of human NCI-H322M cell growth in a cell viability assay.

[17] = test system: NCI-H2081; experiment: cells; type: functional, cell-based, Homo sapiens;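 further: growth inhibition of human NCI-H2081 cells, read out with a cell viability assay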
Description: SANGER: Inhibition of human NCI-H2081 cell growth in a cell viability assay.

[18] = test system: BOKU; experiment: cells; type: functional, cell-based; conditions: Homo sapiens;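 further: growth inhibition of the human BOKU cell line, read out by a cell viability assay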
Description: SANGER: Inhibition of human BOKU cell growth in a cell viability assay.

[19] = test system: EFM-19; experiment: cells; type: functional, cell-based; conditions: Homo sapiens;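 further: growth inhibition of human EFM-19 cells, measured in a cell viability assay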
Description: SANGER: Inhibition of human EFM-19 cell growth in a cell viability assay.

[20] = test system: HOP-92; experiment: cells; type: functional, cell-based; conditions: Homo sapiens;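 further: cell viability readout, with IC50 reflecting inhibition of HOP-92 cell growth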
Description: SANGER: Inhibition of human HOP-92 cell growth in a cell viability assay.

[21] = test system: KOSC-2; experiment: cells; type: functional, cell-based; conditions: Homo sapiens;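 further: growth inhibition of KOSC-2 cells, read out by a cell viability assay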
Description: SANGER: Inhibition of human KOSC-2 cell growth in a cell viability assay.

[22] = test system: CAL-120; experiment: cells; type: functional, cell-based; conditions: Homo sapiens;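 further: cell growth inhibition, read out as cell viability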
Description: SANGER: Inhibition of human CAL-120 cell growth in a cell viability assay.

[23] = test system: LCLC-97TM1; experiment: cells; type: functional, cell-based; conditions: Homo sapiens;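 further: cell viability assay measuring growth inhibition of human LCLC-97TM1 cells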
Description: SANGER: Inhibition of human LCLC-97TM1 cell growth in a cell viability assay.

[24] = test system: VM-CUB-1; experiment: cells; type: functional, cell-based; conditions: Homo sapiens;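 further: cell viability assay measuring growth inhibition of the human VM-CUB-1 cell line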
Description: SANGER: Inhibition of human VM-CUB-1 cell growth in a cell viability assay.

[25] = test system: HTC-C3; experiment: cells; type: functional, cell-based; conditions: Homo sapiens;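 further: inhibition of cell growth, read out with a cell viability assay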
Description: SANGER: Inhibition of human HTC-C3 cell growth in a cell viability assay.

[26] = test system: SW626; experiment: cells; type: functional, cell-based; conditions: Homo sapiens;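 further: growth inhibition of SW626 cells, measured with a cell viability assay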
Description: SANGER: Inhibition of human SW626 cell growth in a cell viability assay.

[27] = test system: NCI-H2170; experiment: cells; type: functional, cell-based; conditions: Homo sapiens;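 further: cell viability assay measuring growth inhibition of human NCI-H2170 cancer cells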
Description: SANGER: Inhibition of human NCI-H2170 cell growth in a cell viability assay.

[28] = test system: CAMA-1; experiment: cells; type: functional, cell-based; conditions: Homo sapiens;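 further: growth inhibition of CAMA-1 cells, read out with a cell viability assay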
Description: SANGER: Inhibition of human CAMA-1 cell growth in a cell viability assay.

[29] = test system: LK-2; experiment: cells; type: functional, cell-based; conditions: Homo sapiens;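 further: growth inhibition of LK-2 cells, read out with a viability assay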
Description: SANGER: Inhibition of human LK-2 cell growth in a cell viability assay.

[30] = test system: RMG-I; experiment: cells; type: functional, cell-based; conditions: Homo sapiens;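 further: growth inhibition of human RMG-I cells, read out with a cell viability assay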
Description: SANGER: Inhibition of human RMG-I cell growth in a cell viability assay.

[31] = test system: HCC70; experiment: cells; type: functional, cell-based; conditions: Homo sapiens;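 further: cell viability assay measuring how strongly the compound suppresses proliferation of HCC70 cells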
Description: SANGER: Inhibition of human HCC70 cell growth in a cell viability assay.

[32] = test system: HuO9; experiment: cells; type: functional, cell-based; conditions: Homo sapiens;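 further: growth inhibition of HuO9 cells, read out with a cell viability assay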
Description: SANGER: Inhibition of human HuO9 cell growth in a cell viability assay.

[33] = test system: TCC-SUP; experiment: cells; type: functional, cell-based; conditions: Homo sapiens;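 further: growth inhibition of TCC-SUP cells, read out with a cell viability assay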
Description: SANGER: Inhibition of human TCCSUP cell growth in a cell viability assay.

[34] = test system: ASPC1; experiment: cells; type: functional, cell-based; conditions: Homo sapiens;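 further: growth inhibition of AsPC-1 cells, read out with a cell viability assay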
Description: SANGER: Inhibition of human AsPC-1 cell growth in a cell viability assay.

[35] = test system: KYSE-510; experiment: cells; type: functional, cell-based; conditions: Homo sapiens;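 further: cell viability readout used to measure how strongly growth of the cell line is suppressed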
Description: SANGER: Inhibition of human KYSE-510 cell growth in a cell viability assay.

[36] = test system: KYSE-70 cell line; experiment: cells; type: functional, cell-based; conditions: Homo sapiens;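 further: cell viability assay read-out, with IC50 expressing suppression of KYSE-70 cell growth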
Description: SANGER: Inhibition of human KYSE-70 cell growth in a cell viability assay.

[37] = test system: NUGC-3; experiment: cells; type: functional, cell-based; conditions: Homo sapiens;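 further: growth inhibition of human NUGC-3 cells, read out with a cell viability assay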
Description: SANGER: Inhibition of human NUGC-3 cell growth in a cell viability assay.

[38] = test system: DK-MG; experiment: cells; type: functional, cell-based; conditions: Homo sapiens;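 further: growth inhibition of DK-MG cells, read out with a cell viability assay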
Description: SANGER: Inhibition of human DK-MG cell growth in a cell viability assay.

[39] = test system: CAL-62; experiment: cells; type: functional, cell-based; conditions: Homo sapiens;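 further: growth inhibition of CAL-62 cells, read out with a cell viability assay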
Description: SANGER: Inhibition of human CAL-62 cell growth in a cell viability assay.

[40] = test system: 769-P; experiment: cells; type: functional, cell-based; conditions: Homo sapiens
Description: SANGER: Inhibition of human 769-P cell growth in a cell viability assay.

[41] = test system: LCLC-103H cell line; experiment: cells; type: functional, cell-based; conditions: Homo sapiens
Description: SANGER: Inhibition of human LCLC-103H cell growth in a cell viability assay.

[42] = test system: SW1573; experiment: cells; type: functional, cell-based; conditions: Homo sapiens;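 further: growth inhibition of SW1573 cells, read out with a cell viability assay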
Description: SANGER: Inhibition of human SW1573 cell growth in a cell viability assay.

[43] = test system: OAW-42; experiment: cells; type: functional, cell-based; conditions: Homo sapiens;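 further: growth inhibition of OAW-42 cells, read out with a cell viability assay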
Description: SANGER: Inhibition of human OAW-42 cell growth in a cell viability assay.

[44] = test system: CAL-39; experiment: cells; type: functional, cell-based; conditions: Homo sapiens;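 further: cell viability assay measuring growth inhibition of CAL-39 cells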
Description: SANGER: Inhibition of human CAL-39 cell growth in a cell viability assay.

[45] = test system: HuP-T4; experiment: cells; type: functional, cell-based; conditions: Homo sapiens;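 further: cell viability assay measuring how much HuP-T4 cell growth is inhibited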
Description: SANGER: Inhibition of human HuP-T4 cell growth in a cell viability assay.

[46] = test system: KU-19-19; experiment: cells; type: functional, cell-based; conditions: Homo sapiens
Description: SANGER: Inhibition of human KU-19-19 cell growth in a cell viability assay.

[47] = test system: A-431; experiment: cells; type: functional, cell-based; conditions: Homo sapiens;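 further: growth inhibition of A-431 cells, determined with a cell viability read-out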
Description: SANGER: Inhibition of human A431 cell growth in a cell viability assay.

[48] = test system: HCC1937; experiment: cells; type: functional, cell-based; conditions: Homo sapiens;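 further: growth inhibition measured with a cell viability read-out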
Description: SANGER: Inhibition of human HCC1937 cell growth in a cell viability assay.

[49] = test system: MKN-7; experiment: cells; type: functional, cell-based; conditions: Homo sapiens;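 further: growth inhibition of MKN-7 cells, read out with a cell viability assay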
Description: SANGER: Inhibition of human MKN7 cell growth in a cell viability assay.

[50] = test system: HT55; experiment: cells; type: functional, cell-based; conditions: Homo sapiens;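 further: cell viability readout measuring growth inhibition of human HT55 cells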
Description: SANGER: Inhibition of human HT55 cell growth in a cell viability assay.

[51] = test system: WM-115; experiment: cells; type: functional, cell-based; conditions: Homo sapiens
Description: SANGER: Inhibition of human WM-115 cell growth in a cell viability assay.

[52] = test system: SK-MEL3; experiment: cells; type: functional, cell-based, SK-MEL-3; conditions: Homo sapiens;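 further: growth inhibition of human SK-MEL-3 cells, read out with a cell viability assay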
Description: SANGER: Inhibition of human SK-MEL-3 cell growth in a cell viability assay.

[53] = test system: SK-MEL-30; experiment: cells; type: functional, cell-based; conditions: Homo sapiens;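 further: growth inhibition of SK-MEL-30 cells, determined with a cell viability assay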
Description: SANGER: Inhibition of human SK-MEL-30 cell growth in a cell viability assay.

[54] = test system: LoVo; experiment: cells; type: functional, cell-based; conditions: Homo sapiens;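 further: growth inhibition of human LoVo cells, read out with a cell viability assay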
Description: SANGER: Inhibition of human LoVo cell growth in a cell viability assay.

[55] = Homo sapiens, IMR-5, read-out: IC50

`Nc1ccccc1NC(=O)c1ccc(CNC(=O)OCc2cccnc2)cc1` [ENTINOSTAT] was tested, and the IC50 ([1]; Homo sapiens, NCI-H524) was 0.554 µM, the IC50 ([2]; Homo sapiens, CMK) was 0.357 µM and the IC50 [3, 55] was > 5 µM. The IC50 ([4]; Homo sapiens, NB14) was 0.726 µM, the IC50 ([5]; Homo sapiens, BC1) was 0.434 µM and the IC50 ([6]; Homo sapiens, NCI-H719) was 1.18 µM. It also gave an IC50 ([7]; Homo sapiens, HuTu80) of 1.8 µM, an IC50 ([8]; Homo sapiens, MRK-nu-1) of 0.432 µM and an IC50 ([9]; Homo sapiens, NCI-H64) of 1.28 µM. The IC50 ([10]; Homo sapiens, Daudi) was 0.777 µM, the IC50 ([11]; Homo sapiens, EC-GI-10) was > 5 µM and the IC50 ([12]; Homo sapiens, BL-70) was 0.857 µM. The IC50 ([13]; Homo sapiens, SNU-C1) was > 5 µM, the IC50 ([14]; Homo sapiens, EB-3) was 4 µM and the IC50 ([15]; Homo sapiens, KARPAS-422) was 1.45 µM. For the same compound, the IC50 ([16]; Homo sapiens, NCI-H322M) was > 5 µM and the IC50 ([17]; Homo sapiens, NCI-H2081) was > 5 µM.

With `Cc1ccc(NC(=O)c2ccc(CN3CCN(C)CC3)cc2)cc1Nc1nccc(-c2cccnc2)n1` [IMATINIB] the IC50 ([1]; Homo sapiens, NCI-H524) was > 2 µM, the IC50 ([2]; Homo sapiens, CMK) was > 2 µM and the IC50 ([3]; Homo sapiens, IMR-5) was > 2 µM. For the same compound, the IC50 ([4]; Homo sapiens, NB14) was > 2 µM, the IC50 ([5]; Homo sapiens, BC1) was > 2 µM and the IC50 ([6]; Homo sapiens, NCI-H719) was > 2 µM. For the same compound, the IC50 ([7]; Homo sapiens, HuTu80) was > 2 µM, the IC50 ([8]; Homo sapiens, MRK-nu-1) was > 2 µM and the IC50 ([9]; Homo sapiens, NCI-H64) was > 2 µM. For the same compound, the IC50 ([10]; Homo sapiens, Daudi) was > 2 µM, the IC50 ([11]; Homo sapiens, EC-GI-10) was > 2 µM and the IC50 ([12]; Homo sapiens, BL-70) was > 2 µM. For the same compound, the IC50 ([13]; Homo sapiens, SNU-C1) was > 2 µM, the IC50 ([14]; Homo sapiens, EB-3) was > 2 µM and the IC50 [18] was > 2 µM. The IC50 ([15]; Homo sapiens, KARPAS-422) was > 2 µM, the IC50 ([16]; Homo sapiens, NCI-H322M) was > 2 µM and the IC50 ([17]; Homo sapiens, NCI-H2081) was > 2 µM.

For `CC(C)C[C@@H](C=O)NC(=O)[C@H](CC(C)C)NC(=O)[C@H](CC(C)C)NC(=O)OCc1ccccc1` [MG-132] (Cbz-Leu-Leu-Leu-aldehyde), the IC50 ([1]; Homo sapiens, NCI-H524) was > 1 µM, the IC50 ([1]; nci-h524) was > 1 µM and the IC50 ([2]; cmk) was 0.311 µM and > 1 µM. For the same compound, the IC50 [3, 55] was > 1 µM, the IC50 ([3]; imr-5, read-out: IC50) was > 1 µM and the IC50 ([4]; nb14) was > 1 µM. For the same compound, the IC50 ([5]; Homo sapiens, BC1) was > 1 µM, the IC50 ([5]; bc1) was > 1 µM and the IC50 ([6]; nci-h719) was > 1 µM. The IC50 ([7]; Homo sapiens, HuTu80) was > 1 µM, the IC50 ([7]; hutu-80) was > 1 µM and the IC50 ([8]; mrk-nu-1) was > 1 µM. The IC50 ([9]; nci-h64) was > 1 µM, the IC50 ([10]; daudi) was > 1 µM and the IC50 ([11]; Homo sapiens, EC-GI-10) was > 1 µM. For the same compound, the IC50 ([11]; ec-gi-10) was > 1 µM, the IC50 ([12]; bl-70) was 0.694 µM and > 1 µM and the IC50 ([13]; snu-c1) was > 1 µM. The IC50 ([14]; eb-3) was > 1 µM, the IC50 [18] was > 1 µM and the IC50 ([15]; karpas-422) was > 1 µM. The IC50 ([16]; nci-h322m) was > 1 µM and the IC50 ([17]; nci-h2081) was > 1 µM.

In the case of `CO[C@@H]1[C@H](N(C)C(=O)c2ccccc2)C[C@H]2O[C@]1(C)n1c3ccccc3c3c4c(c5c6ccccc6n2c5c31)C(=O)NC4` [MIDOSTAURIN], the IC50 [19] is reported as 0.212 µM, the IC50 ([5]; Homo sapiens, BC1) is reported as > 0.512 µM and the IC50 [20] is reported as > 0.512 µM. The IC50 [21] was > 0.512 µM, the IC50 ([12]; Homo sapiens, BL-70) was > 0.512 µM and the IC50 [22] was 0.211 µM. For the same compound, the IC50 [23] was > 0.512 µM and the IC50 [24] was > 0.512 µM.

For `NC1(c2ccc(-c3nc4ccn5c(=O)[nH]nc5c4cc3-c3ccccc3)cc2)CCC1` [MK-2206], the IC50 [25] was > 4 µM, the IC50 [26] was > 4 µM and the IC50 [27] was > 4 µM. For the same compound, the IC50 [28] was > 4 µM, the IC50 [29] was > 4 µM and the IC50 [30] was 2.16 µM. It also gave an IC50 [19] of 0.44 µM, an IC50 [31] of 0.598 µM and an IC50 [32] of 0.928 µM. The IC50 [33] was > 4 µM, the IC50 ([4]; Homo sapiens, NB14) was > 4 µM and the IC50 [34] was 0.221 µM. For the same compound, the IC50 [35] was > 4 µM, the IC50 [20] was 0.872 µM and the IC50 [21] was > 4 µM. For the same compound, the IC50 [36] was > 4 µM, the IC50 [37] was > 4 µM and the IC50 [38] was > 4 µM. The IC50 [39] was > 4 µM, the IC50 [40] was > 4 µM and the IC50 [41] was > 4 µM. The IC50 [42] was > 4 µM, the IC50 [43] was 0.887 µM and the IC50 [44] was > 4 µM. The IC50 [22] was > 4 µM, the IC50 [45] was > 4 µM and the IC50 [46] was > 4 µM. The IC50 [23] was > 4 µM, the IC50 [47] was > 4 µM and the IC50 [48] was > 4 µM. For the same compound, the IC50 [49] was > 4 µM, the IC50 [50] was > 4 µM and the IC50 [51] was > 4 µM. For the same compound, the IC50 [24] was 2.39 µM, the IC50 [52] was > 4 µM and the IC50 [53] was > 4 µM. For the same compound, the IC50 [54] was 1.33 µM.

With `COc1cc(N2CCC(N3CCN(C)CC3)CC2)ccc1Nc1ncc(Cl)c(Nc2ccccc2S(=O)(=O)C(C)C)n1` [TAE-684] the IC50 ([1]; Homo sapiens, NCI-H524) was 1.64 µM, the IC50 ([2]; Homo sapiens, CMK) was 0.255 µM and the IC50 [3, 55] was > 2 µM. The IC50 ([4]; Homo sapiens, NB14) was 0.438 µM, the IC50 ([5]; Homo sapiens, BC1) was > 2 µM and the IC50 ([6]; Homo sapiens, NCI-H719) was > 2 µM. The IC50 ([7]; Homo sapiens, HuTu80) was 0.474 µM, the IC50 ([8]; Homo sapiens, MRK-nu-1) was > 2 µM and the IC50 ([9]; Homo sapiens, NCI-H64) was > 2 µM. The IC50 ([10]; Homo sapiens, Daudi) was 1.79 µM, the IC50 ([11]; Homo sapiens, EC-GI-10) was > 2 µM and the IC50 ([12]; Homo sapiens, BL-70) was 0.995 µM. For the same compound, the IC50 ([13]; Homo sapiens, SNU-C1) was > 2 µM, the IC50 ([14]; Homo sapiens, EB-3) was > 2 µM and the IC50 [18] was > 2 µM. The IC50 ([15]; Homo sapiens, KARPAS-422) was 1.1 µM, the IC50 ([16]; Homo sapiens, NCI-H322M) was > 2 µM and the IC50 ([17]; Homo sapiens, NCI-H2081) was > 2 µM.
